# Laboratory results published in ChEMBL document CHEMBL1150725, “Cytotoxic and antimicrobial alkaloids from the Fijian sponge Xestospongia caycedoi” (J Nat Prod, 1987).
# Key:
# L1210 = assay: Cytotoxicity against mouse L1210 cells; type: functional, cell-based
# Staphylococcus aureus = assay: Antimicrobial activity against Staphylococcus aureus at 100 ug/disk; type: functional; details: read-out: IZ
structure (smiles),measurement,setting,value
COC1=C(C)C(=O)c2ccnc(CO)c2C1=O [RENIEROL],IC50,L1210,3 µg/mL
same,zone of inhibition at 100 µg/disc,Staphylococcus aureus,10 mm
